# Source: patent US11246931B2, “Active pharmaceutical ingredient carrier and production method of the same” (Tokuyama Corporation, priority 2017, dated 2022)
# Assay: Elution test, paddle method of the Japanese Pharmacopoeia (elution rate by HPLC)
# Format: physicochemical
# Details: 37±0.5° C., 75 rpm; for Elution rate (%) 10 min: 10 min after addition; for Elution rate (%) 60 min: 60 min after addition; for Elution rate (%) 120 min: 120 min after addition
# Method: The elution test was performed according to the paddle method in the Japanese Pharmacopoeia the 17th edition. Specifically, the test solution was set to 900 mL of the elution test solution No. 1 of the Japanese Pharmacopoeia, the temperature was set to 37±0.5° C., the rotation speed was set to 75 rpm, the sample to be tested was loaded, and then about 1 mL was sampled at regular intervals, filtered through a syringe filter, and then subjected to HPLC analysis to determine the peak area of the active pharmaceutical ingredient. The obtained area was compared to the peak area of the active pharmaceutical ingredient at the elution rate of 100% to calculate the elution rate (%).
# The elution rate is a value obtained by performing HPLC analysis with 200 mg of an IBP crystal all dissolved in 900 mL of the test solution, taking the obtained area as the elution rate of 100%, adding the active pharmaceutical ingredient or the active pharmaceutical ingredient carrier to the eluate, then performing sampling overtime, performing filtering and HPLC analysis to calculate the area, and comparing the area to the value of the elution rate of 100%.
# An active pharmaceutical ingredient carrier (corresponding to 200 mg of an active pharmaceutical ingredient) (0.66 g) was weighed, and subjected to the elution test according to the paddle method in the Japanese Pharmacopoeia elution test method using the elution test solution No. 1 (pH 1.2). The temperature of the test solution was 37±0.5° C., and the rotation speed was 75 rpm. Sampling was performed at 5 minutes, 10 minutes, 15 minutes, 30 minutes, and then once every 15 minutes until 120 minutes after addition of the active pharmaceutical ingredient carrier, the obtained sample was immediately filtered using a syringe filter, and the elution rate (%) was calculated as described above from the peak area of the active pharmaceutical ingredient by high performance liquid chromatography (HPLC) with a UV detector.
# The elution test of an IBP crystal was performed in the same manner as described above except that an ibuprofen active pharmaceutical ingredient (IBP crystals) was used instead of the active pharmaceutical ingredient carrier.
# In the same manner as in the elution test, the elution test of the obtained active pharmaceutical ingredient carrier or the ezetimibe active ingredient (an ETB crystal) was performed. This test was performed using the elution test solution No. 1 (pH 1.2) same as that described above and the elution test solution No. 2 (pH 6.8).
# In the same manner as described above, the elution test of the obtained active pharmaceutical ingredient carrier or the celecoxib active ingredient (a CXB crystal) was performed using the elution test solution No. 1 (pH 1.2) or the elution test solution No. 2 (pH 6.8).
# In the same manner as described above, the elution test of the obtained active pharmaceutical ingredient carrier or the azilsartan active ingredient (an AZL crystal) was performed using the elution test solution No. 1 (pH 1.2).
# [1] = elution test solution No. 1 (pH 1.2), 900 mL
# [2] = elution test solution No. 2 (pH 6.8)
Elution rate (%) 10 min [1] [%],Elution rate (%) 60 min [1] [%],Elution rate (%) 120 min [1] [%],Elution rate (%) 10 min [2] [%],Elution rate (%) 60 min [2] [%],Elution rate (%) 120 min [2] [%],Structure (SMILES)
0.58,4.7,7.4,,,,"CCOc1nc2cccc(C(=O)O)c2n1Cc1ccc(-c2ccccc2-c2nc(=O)o[nH]2)cc1 [AZL crystal, azilsartan]"
6.1,8.4,8.4,6.6,8.3,8.2,"O=C1[C@H](CC[C@H](O)c2ccc(F)cc2)[C@@H](c2ccc(O)cc2)N1c1ccc(F)cc1 [ETB crystal, ezetimibe]"
1.1,6.0,10.1,,,,"CC(C)Cc1ccc(C(C)C(=O)O)cc1 (stereo not drawn) [IBP crystal, ibuprofen]"
